Data on three compounds can be found in ChEMBL document CHEMBL5715954, “Silencing c-Myc translation as a therapeutic strategy through targeting PI3Kδ and CK1ε in hematological malignancies” (Blood, 2017).

Holding throughout (design): scale not given: the % may be the effect or the level left
The target in experiment [1] is CDK3/Cyclin E (Homo sapiens) (UniProt P24864+Q00526). As to the kind of experiment: Inhibition of human CDK3/cyclin E assessed as enzyme activity at 1 uM using RB Protein as substrate preincubated for 20 mins followed by [gamma-33P]-ATP addition and measured after 120 mins by radiometric Hot-SpotSM Kinase assay relative to control. The experiment is classed as protein-complex assay.
CDK3/Cyclin E (Homo sapiens), sequence (P24864 whole entry, looked up): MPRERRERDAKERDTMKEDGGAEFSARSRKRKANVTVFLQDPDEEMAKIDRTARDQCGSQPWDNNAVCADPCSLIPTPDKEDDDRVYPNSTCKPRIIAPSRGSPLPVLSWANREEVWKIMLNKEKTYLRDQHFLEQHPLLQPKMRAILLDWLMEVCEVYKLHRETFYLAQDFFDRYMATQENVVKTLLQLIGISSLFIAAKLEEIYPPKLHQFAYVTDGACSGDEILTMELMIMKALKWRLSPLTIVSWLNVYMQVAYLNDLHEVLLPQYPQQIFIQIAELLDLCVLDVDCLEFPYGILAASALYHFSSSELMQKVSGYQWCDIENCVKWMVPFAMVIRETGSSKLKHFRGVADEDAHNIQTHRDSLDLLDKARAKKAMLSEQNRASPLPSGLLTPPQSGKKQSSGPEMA
CDK3/Cyclin E (Homo sapiens), sequence (Q00526 whole entry, looked up): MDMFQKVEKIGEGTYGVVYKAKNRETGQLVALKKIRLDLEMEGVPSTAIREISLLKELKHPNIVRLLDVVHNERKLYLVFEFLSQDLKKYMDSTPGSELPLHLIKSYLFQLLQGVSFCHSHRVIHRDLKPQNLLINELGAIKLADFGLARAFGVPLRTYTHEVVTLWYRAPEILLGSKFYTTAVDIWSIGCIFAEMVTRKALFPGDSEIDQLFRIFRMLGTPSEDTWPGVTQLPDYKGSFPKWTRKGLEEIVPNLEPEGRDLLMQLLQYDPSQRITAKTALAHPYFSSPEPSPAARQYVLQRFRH

For experiment [2], the target named is Protein kinase C delta type (Homo sapiens) (UniProt Q05655). As to the kind of experiment: Inhibition of human PKCd assessed as enzyme activity at 1 uM using ERMRPRKRQGSVRRRV as substrate preincubated for 20 mins followed by [gamma-33P]-ATP addition and measured after 120 mins by radiometric Hot-SpotSM Kinase assay relative to control.
Protein kinase C delta type (Homo sapiens), sequence (Q05655 whole entry, looked up): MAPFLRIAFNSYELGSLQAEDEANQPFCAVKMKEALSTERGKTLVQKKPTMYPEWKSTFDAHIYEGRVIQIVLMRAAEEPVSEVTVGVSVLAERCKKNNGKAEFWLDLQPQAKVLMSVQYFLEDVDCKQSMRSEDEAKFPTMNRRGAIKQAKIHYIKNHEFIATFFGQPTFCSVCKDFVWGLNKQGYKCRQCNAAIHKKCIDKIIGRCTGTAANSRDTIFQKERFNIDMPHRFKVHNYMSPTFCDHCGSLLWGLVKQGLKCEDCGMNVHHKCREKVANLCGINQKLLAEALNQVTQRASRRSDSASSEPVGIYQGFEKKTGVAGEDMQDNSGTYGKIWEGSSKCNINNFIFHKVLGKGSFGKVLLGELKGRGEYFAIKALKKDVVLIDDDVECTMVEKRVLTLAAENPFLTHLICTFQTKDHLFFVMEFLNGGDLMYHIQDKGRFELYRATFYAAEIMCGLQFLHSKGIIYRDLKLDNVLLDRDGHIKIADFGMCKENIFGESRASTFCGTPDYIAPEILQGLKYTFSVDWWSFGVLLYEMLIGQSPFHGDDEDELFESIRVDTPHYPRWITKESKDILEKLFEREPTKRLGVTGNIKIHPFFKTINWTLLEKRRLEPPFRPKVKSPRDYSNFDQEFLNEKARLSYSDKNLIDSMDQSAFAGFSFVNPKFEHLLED
In experiment [3] the target is T1, Cytoplasmic tyrosine-protein kinase BMX (Homo sapiens) (UniProt P51813).
T1 sequence (whole entry): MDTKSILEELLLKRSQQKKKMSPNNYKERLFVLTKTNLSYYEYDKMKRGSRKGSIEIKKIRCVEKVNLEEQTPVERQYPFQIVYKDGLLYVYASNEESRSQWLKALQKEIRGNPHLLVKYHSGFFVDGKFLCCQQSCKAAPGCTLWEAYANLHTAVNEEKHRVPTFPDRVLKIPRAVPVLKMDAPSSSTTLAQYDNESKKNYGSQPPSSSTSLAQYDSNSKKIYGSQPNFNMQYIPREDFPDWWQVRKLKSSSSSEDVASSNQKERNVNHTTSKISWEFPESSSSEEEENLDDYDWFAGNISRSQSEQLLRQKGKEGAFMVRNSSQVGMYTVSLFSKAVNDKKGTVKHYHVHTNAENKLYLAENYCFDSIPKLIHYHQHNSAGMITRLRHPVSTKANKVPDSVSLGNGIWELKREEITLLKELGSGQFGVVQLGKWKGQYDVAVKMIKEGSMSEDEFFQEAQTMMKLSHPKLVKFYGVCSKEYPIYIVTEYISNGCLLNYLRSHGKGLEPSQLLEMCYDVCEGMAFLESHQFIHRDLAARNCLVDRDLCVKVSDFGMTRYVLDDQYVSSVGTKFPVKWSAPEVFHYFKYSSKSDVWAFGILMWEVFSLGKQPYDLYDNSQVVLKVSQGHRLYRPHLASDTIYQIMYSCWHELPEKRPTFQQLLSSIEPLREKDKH
As to the kind of experiment: Inhibition of human BMX assessed as enzyme activity at 1 uM using poly[Glu:Tyr] (4:1) as substrate preincubated for 20 mins followed by [gamma-33P]-ATP addition and measured after 120 mins by radiometric Hot-SpotSM Kinase assay relative to control.

The target in experiment [4] is Serine/threonine-protein kinase/endoribonuclease IRE2 (Homo sapiens) (UniProt Q76MJ5). As to the kind of experiment: Inhibition of human ERN2/IRE2 assessed as enzyme activity at 1 uM using myelin basic protein as substrate preincubated for 20 mins followed by [gamma-33P]-ATP addition and measured after 120 mins by radiometric Hot-SpotSM Kinase assay relative to control.
Serine/threonine-protein kinase/endoribonuclease IRE2 (Homo sapiens), sequence (Q76MJ5 35-926 limits assumed): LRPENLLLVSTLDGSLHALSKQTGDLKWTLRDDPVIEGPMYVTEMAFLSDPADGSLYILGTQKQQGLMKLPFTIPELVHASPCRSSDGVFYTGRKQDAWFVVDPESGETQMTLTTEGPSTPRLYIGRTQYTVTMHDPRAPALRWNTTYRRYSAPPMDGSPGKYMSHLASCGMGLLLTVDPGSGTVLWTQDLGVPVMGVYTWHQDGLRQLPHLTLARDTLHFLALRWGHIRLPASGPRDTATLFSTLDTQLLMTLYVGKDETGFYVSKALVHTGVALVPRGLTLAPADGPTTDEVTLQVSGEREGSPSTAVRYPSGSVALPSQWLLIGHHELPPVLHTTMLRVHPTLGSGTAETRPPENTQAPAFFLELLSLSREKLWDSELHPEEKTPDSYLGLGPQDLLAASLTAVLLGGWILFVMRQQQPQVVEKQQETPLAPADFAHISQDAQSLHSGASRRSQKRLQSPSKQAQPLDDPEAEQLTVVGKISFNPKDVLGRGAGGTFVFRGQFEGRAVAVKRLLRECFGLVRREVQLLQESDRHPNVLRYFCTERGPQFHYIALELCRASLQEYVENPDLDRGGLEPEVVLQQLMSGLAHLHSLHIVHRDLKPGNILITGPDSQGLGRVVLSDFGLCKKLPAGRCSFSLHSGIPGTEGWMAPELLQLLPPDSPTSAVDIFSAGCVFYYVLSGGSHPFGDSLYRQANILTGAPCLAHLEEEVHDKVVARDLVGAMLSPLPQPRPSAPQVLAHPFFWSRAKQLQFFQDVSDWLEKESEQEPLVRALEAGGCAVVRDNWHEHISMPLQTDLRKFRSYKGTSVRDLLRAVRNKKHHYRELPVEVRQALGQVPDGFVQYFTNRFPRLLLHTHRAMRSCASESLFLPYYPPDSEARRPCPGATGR

Experiment [5] deals with T2, Kinase suppressor of Ras 2 (Homo sapiens) (UniProt Q6VAB6).
T2 sequence (whole entry): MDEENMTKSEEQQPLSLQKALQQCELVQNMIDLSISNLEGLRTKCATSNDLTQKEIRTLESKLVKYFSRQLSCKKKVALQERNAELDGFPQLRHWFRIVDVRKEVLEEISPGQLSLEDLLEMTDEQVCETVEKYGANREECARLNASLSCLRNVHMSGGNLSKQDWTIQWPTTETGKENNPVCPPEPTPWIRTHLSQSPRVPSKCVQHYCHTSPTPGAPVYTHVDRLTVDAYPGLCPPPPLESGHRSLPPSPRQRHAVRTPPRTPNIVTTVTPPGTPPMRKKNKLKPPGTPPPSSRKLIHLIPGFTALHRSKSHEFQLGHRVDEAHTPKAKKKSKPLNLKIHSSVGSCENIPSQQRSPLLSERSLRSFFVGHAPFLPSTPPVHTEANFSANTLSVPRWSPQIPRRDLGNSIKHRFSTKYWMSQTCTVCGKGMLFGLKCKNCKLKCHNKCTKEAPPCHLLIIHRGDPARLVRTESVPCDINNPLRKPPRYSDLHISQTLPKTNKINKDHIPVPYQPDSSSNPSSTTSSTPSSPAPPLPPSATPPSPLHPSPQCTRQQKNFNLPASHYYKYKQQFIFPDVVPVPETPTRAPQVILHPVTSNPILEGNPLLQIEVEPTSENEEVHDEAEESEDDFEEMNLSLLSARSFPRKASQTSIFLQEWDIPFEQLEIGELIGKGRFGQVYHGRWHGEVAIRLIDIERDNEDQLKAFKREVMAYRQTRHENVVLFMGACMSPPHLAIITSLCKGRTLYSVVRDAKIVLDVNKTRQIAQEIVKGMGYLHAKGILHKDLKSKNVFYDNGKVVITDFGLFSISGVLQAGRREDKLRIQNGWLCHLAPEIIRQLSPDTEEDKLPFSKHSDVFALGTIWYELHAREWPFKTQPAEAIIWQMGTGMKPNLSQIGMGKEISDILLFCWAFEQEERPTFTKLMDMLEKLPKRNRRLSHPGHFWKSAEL
As to the kind of experiment: Inhibition of human KSR2 assessed as enzyme activity at 1 uM using KRREILSRRPSYR as substrate preincubated for 20 mins followed by [gamma-33P]-ATP addition and measured after 120 mins by radiometric Hot-SpotSM Kinase assay relative to control.

Regarding `C[C@H](Nc1ncnc2nc[nH]c12)c1cc2cccc(Cl)c2c(=O)n1-c1ccccc1`, the Activity came to 88% in experiment [1]; 93.9% in experiment [2]; 86.4% in experiment [3]; 96.5% in experiment [4]; 91.4% in experiment [5].

For the compound `CC[C@H](Nc1ncnc2[nH]cnc12)c1nc2cccc(F)c2c(=O)n1-c1ccccc1`, the Activity in experiment [1] is 86.8%; in experiment [2], 95.2%; in experiment [3], 87.8%; in experiment [4] it was 100%; in experiment [5], 95%.

In the case of `CC(C)Oc1ccc(-c2nn([C@@H](C)c3oc4ccc(F)cc4c(=O)c3-c3cccc(F)c3)c3ncnc(N)c23)cc1F` [UMBRALISIB], the Activity stood at 84.3% in experiment [1]; 104% in experiment [2]; 87.3% in experiment [3]; 98.3% in experiment [4]; 96.2% in experiment [5].
